These results are taken from ChEMBL document CHEMBL4152300, “Discovery of the selective and efficacious inhibitors of FLT3 mutations” (Eur J Med Chem, 2018).

Series [1] in a line: Half life in human liver microsomes preincubated for 5 mins followed by NADPH addition by LC-MS/MS analysis. It is filed as ADME, microsome. For orientation: Liver microsomes are vesicles of endoplasmic reticulum, rich in cytochrome P450 enzymes.
Series [2] relates to MV4-11. Put plainly: Induction of apoptosis in human MV4-11 cells assessed as live cells at 0.5 uM after 24 hrs by Annexin V-FITC/propidium iodide staining based flow cytometry (reference value: 100%). It is filed as functional. For orientation: Flow cytometry measures light scatter and fluorescence of single cells or particles in a stream.
The species entered for another series is Homo sapiens. The series can be described thus: Selectivity ratio of IC50 for human FLT4 to IC50 for human FLT3.
The target of series [3] is T1, Receptor-type tyrosine-protein kinase FLT3 (Homo sapiens, UniProt P36888). Put plainly: Inhibition of FLT3 in human MV4-11 cells assessed as reduction in ERK1/2 phosphorylation at Thr202/Tyr204 residues after 4 hrs by Western blot analysis. In kind it is cell-based. In general terms: Immunoblotting shows a protein as a band on a membrane.
The subject of series [4] is MV4-11. Put plainly: Induction of apoptosis in human MV4-11 cells assessed as early apoptotic cells at 0.5 uM after 24 hrs by Annexin V-FITC/propidium iodide staining based flow cytometry (reference value: 0%). In kind it is functional.
A further series concerns K562. Put plainly: Growth inhibition of FLT3 null human K562 cells after 72 hrs by Cell-Titer Glo assay. It is filed as functional, cell-based. Conditions: K562, 72 h.
Series [5] has as its target T1, Receptor-type tyrosine-protein kinase FLT3. The series can be described thus: Inhibition of human FLT3 Y591-V592 mutant by Hotspot assay.
Series [6] in a line: Drug uptake in human liver microsomes up to 60 mins by LC-MS/MS analysis. In kind it is ADME, microsome. The settings on record: 1 h.
In series [7] the target is Receptor-type tyrosine-protein kinase FLT3 (Homo sapiens, UniProt P36888, D835V/ITD). Put plainly: Binding affinity to human FLT3 ITD/D835V double mutant expressed in bacterial expression system by Kinomescan method.
The test system of a further series is MOLM-13. Put plainly: Growth inhibition of human MOLM13 cells harboring FLT3-ITD after 72 hrs by Cell-Titer Glo assay. In kind it is functional, cell-based. Conditions: MOLM-13, 72 h.
Series [8] concerns the target T1, Receptor-type tyrosine-protein kinase FLT3. The series can be described thus: Inhibition of human FLT3 F594_R595insREY mutant by Hotspot assay.
The next series concerns HL-60. Put plainly: Growth inhibition of human HL60 cells expressing low levels of FLT3 after 72 hrs by Cell-Titer Glo assay. It is filed as functional, cell-based. Conditions: HL-60, 72 h.

Molecules are shown by their SMILES.

By half-life is commonly meant how long it takes for the measured level to halve. By IC50 is commonly meant the midpoint of a concentration-inhibition curve. Usually Kd stands for the free concentration of one partner at which half of the binding sites on the other are occupied at equilibrium, for simple one-to-one binding. The low end stands for higher affinity, the high end for lower affinity. `Cc1nc2c(c(Nc3c[nH]nc3C(=O)Nc3ccc(N4CCNCC4)cc3)n1)CCC2` registered a half-life in series [1] of 2.45 h. Further, the Activity is given as 29% in the series with MV4-11 [2] and 60.4% in the series on MV4-11 [4]. The Ratio IC50 in the series filed under Homo sapiens was 120. For the same molecule, the inhibition result in series [3] is “Dose-dependent effect”. The IC50 in the series on K562 is 11600 nM; in series [5], 15.3 nM; with MOLM-13 it was 37 nM; in series [8] it was 9.15 nM; in the series on HL-60, 26700 nM. The same molecule yielded a Drug uptake in series [6] of 28.7%. Besides, the affinity in [7], expressed as Kd, was 3.7 nM.
